Key:
[1] = system: S. lividans HD000 negative control; assay: Whole-cell biotransformation of ritonavir in 24-well block format, empty-vector strain; assay type: cell-based, Streptomyces lividans; conditions: for +16 Da (1.67 min) / +16 Da (1.72 min) / +16 Da (1.76 min) / Parent (1.90 min): ritonavir 100 mg/L
Method: As a negative control, an empty plJ12551 expression vector was introduced into S. lividans TK24 by triparental conjugation as described above and designated as S. lividans […].
(§1) Approximately 10^8 cells of S. lividans HD000 and S. lividans […] inoculated separately into 50 mL of culture medium (containing 5 g/L glycerol; 20 g/L glucose; 5 g/L yeast extract peptone; 2 g/L meat extract; 5 g/L mycological peptone; 1 g/L ammonium phosphate dibasic; 3 g/I sodium chloride; 0.3 g/L magnesium sulphate heptahydrate and 3.5 g/L calcium carbonate, adjusted to pH 7.0 and sterilised at 115° C. for 15 minutes) in 250 mL baffled flasks and incubated shaking at 27° C., 200 rpm for 48 hours. In a 24-well micro-bioreactor block (EnzyScreen, Netherlands), 2.5 mL of S. lividans HD000 and S. lividans HD002 were dosed with ritonavir at a concentration of 100 mg/L. Ritonavir was formulated with 20% hydroxypropyl-p-cyclodextrin (prepared via 1 in 25 dilution of a stock solution of 25 mg ritonavir in 1 mL DMSO). Cultures were time-coursed daily after dosing to assess the production of the target metabolite hydroxy-ritonavir as in Example 5.
(§2) Conversions of ritonavir improved with longer incubations with the drug.

[2] = system: P450SriC12-ferredoxinSriF05-ferredoxin reductaseSCF15A expressed in S. lividans HD002; assay: Whole-cell biotransformation of ritonavir in 24-well block format; assay type: cell-based, Streptomyces rimosus NRRL-2234; conditions: for +16 Da (1.67 min) / +16 Da (1.72 min) / +16 Da (1.76 min) / Parent (1.90 min): ritonavir 100 mg/L
Method: as §1, §2

[3] = Concentration of cytochrome P450 in cell-free extract by carbon monoxide difference spectrum (Omura and Sato); conditions: mutant P450SriC12 expressed in E. coli BL21 (DE3)
Method: Measurement is performed according to the method of Omura and Sato et al. (J Biol Chem, 239. 1964, 2370). That is to say, cytochrome P450 is analyzed quantitatively using the following formula, based on the difference in the absorbance of the reduced CO versus the reduced difference spectrum at 450 nm and 490 nm.
Measurement of the concentration of cytochrome P450 were performed according to the method of Omura and Sato et al. (J Biol Chem, 239. 1964, 2370). Cytochrome P450 concentrations of cell-free extracts of induced E. coli BL21 (DE3) Rosetta2 & Tuner cells harbouring either pHD05-SriC01, pHD02-SriC12-SriF05, pHD05-SriC14-SriF06, pHD05-SriC20, pHD05-SriC22 or pHD05-SriC51-SriF08 are shown in Table 2. Carbon monoxide difference spectra for P450SriC01, P450SriC12, P450SriC14, P450SriC20, P450SriC22 and P450SriC51 are shown in FIGS. 9, 10, 11, 19, 20 & 21 respectively.
The native and codon optimised P450sriC12 and ferredoxinsriF05 in pHD02-SriC12-SriF05 and pHD02-SriC12CO-SriF05CO respectively were introduced into E. coli BL21 (DE3). The recombinant strains were cultured and proteins were induced as in Example 2. The cell-free extract material was obtained as in Example 3 and carbon monoxide difference spectrums were measure to calculate the concentration of cytochrome P450.
The resulting plasmids containing the new mutants genes were transformed into recombinant E. coli strains for expression as described in Example 1, cultured and induced as described in Example 2, extracted and processed as described in Example 3 and tested for biocatalytic activity as described in Example 5 above. The carbon monoxide difference spectrum result of R63W mutant of codon optimised P450SriC12 is shown in FIG. 14 and the cytochrome P450 concentration of mutant P450SriC12 are shown in Table 5.

## CC(C)c1nc(CN(C)C(=O)N[C@H](C(=O)N[C@@H](Cc2ccccc2)C[C@H](O)[C@H](Cc2ccccc2)NC(=O)OCc2cncs2)C(C)C)cs1 [ritonavir]
[1]; sampling 24 hour
  +16 Da (1.67 min): 0.0%
  +16 Da (1.72 min): 0.0%
  +16 Da (1.76 min): 0.0%
  Parent (1.90 min): 100.0%
[1]; sampling 48 hour
  +16 Da (1.67 min): 0.0%
  +16 Da (1.72 min): 0.0%
  +16 Da (1.76 min): 0.0%
  Parent (1.90 min): 100.0%
[1]; sampling 120 hour
  +16 Da (1.67 min): 0.0%
  +16 Da (1.72 min): 0.0%
  +16 Da (1.76 min): 0.0%
  Parent (1.90 min): 100.0%
[1]; whole cells
  hydroxylation of ritonavir (in words): unable to hydroxylate ritonavir
[2]; sampling 24 hour
  +16 Da (1.67 min): 7.1%
  +16 Da (1.72 min): 18.9%
  +16 Da (1.76 min): 1.4%
  Parent (1.90 min): 68.5%
[2]; sampling 48 hour
  +16 Da (1.67 min): 8.6%
  +16 Da (1.72 min): 23.6%
  +16 Da (1.76 min): 2.8%
  Parent (1.90 min): 58.6%
[2]; sampling 120 hour
  +16 Da (1.67 min): 9.1%
  +16 Da (1.72 min): 28.1%
  +16 Da (1.76 min): 1.4%
  Parent (1.90 min): 51.2%
[2]; whole-cell biotransformation
  hydroxylation of ritonavir (in words): able to hydroxylate ritonavir

B1: Mutant 17 R63W R74Y: R63W R74Y mutant of codon optimised cytochrome SriC12, SEQ ID NO: 251 (protein)
chain: MTEALPFPQDRTCPYDPPAGYQPLRDSRPLSRVTLYDGRPAWVVTGHAESRALLTDPRLSADWQNPAFPSPAPYFETLRKVRTPLLGVDDPEHNTQRRMLIPSFSVKRAAALRPRIQEIVDRLLDAMEQQGPPAELVSAFALPVPSMVICALLGVPYADHELFEGLSRTLLQSADPQEVTEARDKLEDYFTALVERKRKEPGDGLLDELIAERLDSGELGHRELVRMAMLLLVAGHETTSNMLSLGTFTLLEHPEQFAALRADPSLLPAAVEELLRFLSIADGMVRVATEDIEIGGVTIRADDGVIFSTSVVNRDGAAYASPDTLDWERSARHHVAFGFGVHQCLGQNLARAEMEIAFGALFARFPGLRLAVPAAEIPVKPAHALQGLVELPVTW
modifications: R63W R74Y mutant of SriC12
[3]
  P450 concentration: 27.6 µM

B2: Mutant 20 R74Y L171A R183W: R74Y L171A R183W mutant of codon optimised cytochrome SriC12, SEQ ID NO: 255 (protein)
chain: MTEALPFPQDRTCPYDPPAGYQPLRDSRPLSRVTLYDGRPAWVVTGHAESRALLTDPRLSADRQNPAFPSPAPYFETLRKVRTPLLGVDDPEHNTQRRMLIPSFSVKRAAALRPRIQEIVDRLLDAMEQQGPPAELVSAFALPVPSMVICALLGVPYADHELFEGLSRTLAQSADPQEVTEAWDKLEDYFTALVERKRKEPGDGLLDELIAERLDSGELGHRELVRMAMLLLVAGHETTSNMLSLGTFTLLEHPEQFAALRADPSLLPAAVEELLRFLSIADGMVRVATEDIEIGGVTIRADDGVIFSTSVVNRDGAAYASPDTLDWERSARHHVAFGFGVHQCLGQNLARAEMEIAFGALFARFPGLRLAVPAAEIPVKPAHALQGLVELPVTW
modifications: R74Y L171A R183W mutant of SriC12
[3]
  P450 concentration: 14.1 µM

B3: Mutant 1 R63W: R63W mutant of codon optimised cytochrome SriC12, SEQ ID NO: 231 (protein)
chain: MTEALPFPQDRTCPYDPPAGYQPLRDSRPLSRVTLYDGRPAWVVTGHAESRALLTDPRLSADWQNPAFPSPAPRFETLRKVRTPLLGVDDPEHNTQRRMLIPSFSVKRAAALRPRIQEIVDRLLDAMEQQGPPAELVSAFALPVPSMVICALLGVPYADHELFEGLSRTLLQSADPQEVTEARDKLEDYFTALVERKRKEPGDGLLDELIAERLDSGELGHRELVRMAMLLLVAGHETTSNMLSLGTFTLLEHPEQFAALRADPSLLPAAVEELLRFLSIADGMVRVATEDIEIGGVTIRADDGVIFSTSVVNRDGAAYASPDTLDWERSARHHVAFGFGVHQCLGQNLARAEMEIAFGALFARFPGLRLAVPAAEIPVKPAHALQGLVELPVTW
modifications: R63W mutant of SriC12
[3]
  P450 concentration: 17.6 µM

B4: Mutant 18 R63W L171A: R63W L171A mutant of codon optimised cytochrome SriC12, SEQ ID NO: 253 (protein)
chain: MTEALPFPQDRTCPYDPPAGYQPLRDSRPLSRVTLYDGRPAWVVTGHAESRALLTDPRLSADWQNPAFPSPAPRFETLRKVRTPLLGVDDPEHNTQRRMLIPSFSVKRAAALRPRIQEIVDRLLDAMEQQGPPAELVSAFALPVPSMVICALLGVPYADHELFEGLSRTLAQSADPQEVTEARDKLEDYFTALVERKRKEPGDGLLDELIAERLDSGELGHRELVRMAMLLLVAGHETTSNMLSLGTFTLLEHPEQFAALRADPSLLPAAVEELLRFLSIADGMVRVATEDIEIGGVTIRADDGVIFSTSVVNRDGAAYASPDTLDWERSARHHVAFGFGVHQCLGQNLARAEMEIAFGALFARFPGLRLAVPAAEIPVKPAHALQGLVELPVTW
modifications: R63W L171A mutant of SriC12
[3]
  P450 concentration: 22.4 µM

B5: Mutant 2 R63Y: R63Y mutant of codon optimised cytochrome SriC12, SEQ ID NO: 233 (protein)
chain: MTEALPFPQDRTCPYDPPAGYQPLRDSRPLSRVTLYDGRPAWVVTGHAESRALLTDPRLSADYQNPAFPSPAPRFETLRKVRTPLLGVDDPEHNTQRRMLIPSFSVKRAAALRPRIQEIVDRLLDAMEQQGPPAELVSAFALPVPSMVICALLGVPYADHELFEGLSRTLLQSADPQEVTEARDKLEDYFTALVERKRKEPGDGLLDELIAERLDSGELGHRELVRMAMLLLVAGHETTSNMLSLGTFTLLEHPEQFAALRADPSLLPAAVEELLRFLSIADGMVRVATEDIEIGGVTIRADDGVIFSTSVVNRDGAAYASPDTLDWERSARHHVAFGFGVHQCLGQNLARAEMEIAFGALFARFPGLRLAVPAAEIPVKPAHALQGLVELPVTW
modifications: R63Y mutant of SriC12
[3]
  P450 concentration: 6.2 µM

B6: Mutant 22 R63W R74Y L171A: R63W R74Y L171A mutant of codon optimised cytochrome SriC12, SEQ ID NO: 257 (protein)
chain: MTEALPFPQDRTCPYDPPAGYQPLRDSRPLSRVTLYDGRPAWVVTGHAESRALLTDPRLSADWQNPAFPSPAPYFETLRKVRTPLLGVDDPEHNTQRRMLIPSFSVKRAAALRPRIQEIVDRLLDAMEQQGPPAELVSAFALPVPSMVICALLGVPYADHELFEGLSRTLAQSADPQEVTEARDKLEDYFTALVERKRKEPGDGLLDELIAERLDSGELGHRELVRMAMLLLVAGHETTSNMLSLGTFTLLEHPEQFAALRADPSLLPAAVEELLRFLSIADGMVRVATEDIEIGGVTIRADDGVIFSTSVVNRDGAAYASPDTLDWERSARHHVAFGFGVHQCLGQNLARAEMEIAFGALFARFPGLRLAVPAAEIPVKPAHALQGLVELPVTW
modifications: R63W R74Y L171A mutant of SriC12
[3]
  P450 concentration: 19.9 µM

Reference: patent US11891642B2, “Biocatalytic techniques” (HYPHA DISCOVERY LIMITED, priority 2018, dated 2024)
